Reference: publication PMC10056986 (Pharmaceuticals, 2023)
Read-outs that look alike come from different tables or passages of the source.

What was measured:
PDK1 = PDK1 (Homo sapiens, UniProt O15530); experiment: biochemical
[1] = test system: H1N1 and H3N2 influenza A virus strains; experiment: microbe, parasite or virus in culture; conditions: MDCK
Eta [2] = target: T1, Eta (Homo sapiens, UniProt P25101); experiment: cell-based
MAP4K4 = MAP4K4 (Homo sapiens, UniProt O95819); experiment: biochemical
op-kappa [3] = target: T2, op-kappa (Homo sapiens, UniProt P41145); experiment: cell-based
T2 sequence (P41145 whole entry): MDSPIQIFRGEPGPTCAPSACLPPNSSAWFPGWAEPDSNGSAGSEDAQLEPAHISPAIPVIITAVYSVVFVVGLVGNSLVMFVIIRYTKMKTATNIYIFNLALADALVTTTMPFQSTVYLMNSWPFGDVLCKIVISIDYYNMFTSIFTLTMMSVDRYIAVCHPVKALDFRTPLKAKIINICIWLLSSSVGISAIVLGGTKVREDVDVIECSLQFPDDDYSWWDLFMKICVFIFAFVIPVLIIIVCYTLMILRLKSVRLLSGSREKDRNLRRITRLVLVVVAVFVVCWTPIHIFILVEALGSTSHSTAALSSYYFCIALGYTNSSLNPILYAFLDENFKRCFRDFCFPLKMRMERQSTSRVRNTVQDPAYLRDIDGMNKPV

CB2 = CB2 (Homo sapiens, UniProt P34972); experiment: cell-based
LCK = LCK (Homo sapiens, UniProt P06239); experiment: biochemical
22 GPCR targets = assay type: cell-based, human; conditions: read-out: EC50 (agonistic activity)
M3 = M3 (Homo sapiens, UniProt P20309); experiment: cell-based
5HT1A = 5HT1A (Homo sapiens, UniProt P08908); experiment: cell-based
5HT1A, sequence (P08908 whole entry): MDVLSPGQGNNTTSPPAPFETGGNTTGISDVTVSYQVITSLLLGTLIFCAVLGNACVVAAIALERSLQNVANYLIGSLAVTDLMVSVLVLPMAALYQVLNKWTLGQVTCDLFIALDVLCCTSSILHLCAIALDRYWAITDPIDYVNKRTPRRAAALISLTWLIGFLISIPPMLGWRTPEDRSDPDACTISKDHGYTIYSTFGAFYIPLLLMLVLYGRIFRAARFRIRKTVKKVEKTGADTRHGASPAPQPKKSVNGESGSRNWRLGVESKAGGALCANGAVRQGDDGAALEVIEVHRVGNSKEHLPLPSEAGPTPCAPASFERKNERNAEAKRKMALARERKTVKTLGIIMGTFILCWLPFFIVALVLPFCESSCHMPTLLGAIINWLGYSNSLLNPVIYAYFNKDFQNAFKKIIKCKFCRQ

H1 = H1 (Homo sapiens, UniProt P35367); experiment: cell-based
HRV 1B = experiment: microbe, parasite or virus in culture; assay type: cell-based; conditions: Human rhinovirus sp., H1-HeLa, read-out: EC50 for Virus
MAPKAPK2 = MAPKAPK2 (Homo sapiens, UniProt P49137); experiment: biochemical
[4] = test system: Influenza virus A/PR/8/34 (H1N1); experiment: microbe, parasite or virus in culture; assay type: cell-based; conditions: H1N1|PR/8, MDCK, read-out: EC50 (mean ± SD)
HCV replicon 1b = experiment: microbe, parasite or virus in culture; assay type: cell-based; conditions: Hepatitis C virus, read-out: EC50 for Virus
[5] = test system: Influenza virus A/Hong Kong/8/68 (H3N2); experiment: microbe, parasite or virus in culture; assay type: cell-based; conditions: unidentified influenza virus, H3N2, MDCK, read-out: EC50 (mean ± SD)
PKA = PKA (Homo sapiens, UniProt P17612); experiment: biochemical
V1a = V1a (Homo sapiens, UniProt P37288); experiment: cell-based
Alpha2a = Alpha2a (Homo sapiens, UniProt P08913); experiment: cell-based
Alpha2a, sequence (P08913 whole entry): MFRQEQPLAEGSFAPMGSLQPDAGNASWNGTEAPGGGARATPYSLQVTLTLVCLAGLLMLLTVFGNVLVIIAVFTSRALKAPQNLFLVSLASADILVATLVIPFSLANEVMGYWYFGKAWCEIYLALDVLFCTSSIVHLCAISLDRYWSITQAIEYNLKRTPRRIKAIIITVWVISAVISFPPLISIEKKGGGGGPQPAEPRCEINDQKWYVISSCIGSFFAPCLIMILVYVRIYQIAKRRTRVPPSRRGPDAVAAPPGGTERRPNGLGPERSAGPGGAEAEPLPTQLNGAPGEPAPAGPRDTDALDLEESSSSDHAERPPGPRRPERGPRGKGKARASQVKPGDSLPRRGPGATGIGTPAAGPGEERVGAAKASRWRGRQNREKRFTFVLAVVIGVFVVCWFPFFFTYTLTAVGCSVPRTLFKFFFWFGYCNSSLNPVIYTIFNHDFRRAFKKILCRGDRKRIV

M2 = M2 (Homo sapiens, UniProt P08172); experiment: cell-based
M2, sequence (P08172 whole entry): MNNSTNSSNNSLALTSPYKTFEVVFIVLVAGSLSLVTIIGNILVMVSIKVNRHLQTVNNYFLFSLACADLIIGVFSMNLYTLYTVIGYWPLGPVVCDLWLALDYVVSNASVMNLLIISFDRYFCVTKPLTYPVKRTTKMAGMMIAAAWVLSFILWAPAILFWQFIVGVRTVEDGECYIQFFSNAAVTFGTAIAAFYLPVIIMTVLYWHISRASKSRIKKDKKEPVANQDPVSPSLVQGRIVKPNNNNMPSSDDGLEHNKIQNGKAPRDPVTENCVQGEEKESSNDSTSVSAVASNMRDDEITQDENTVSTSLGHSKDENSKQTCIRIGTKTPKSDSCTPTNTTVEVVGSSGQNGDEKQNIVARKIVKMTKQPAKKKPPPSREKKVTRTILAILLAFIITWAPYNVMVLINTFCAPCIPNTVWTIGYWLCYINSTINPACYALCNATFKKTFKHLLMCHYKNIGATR

in vitro [6] = experiment: in vitro
D2 [7] = target: T3, D2 (Homo sapiens, UniProt P14416); experiment: cell-based
T3 sequence (P14416 whole entry): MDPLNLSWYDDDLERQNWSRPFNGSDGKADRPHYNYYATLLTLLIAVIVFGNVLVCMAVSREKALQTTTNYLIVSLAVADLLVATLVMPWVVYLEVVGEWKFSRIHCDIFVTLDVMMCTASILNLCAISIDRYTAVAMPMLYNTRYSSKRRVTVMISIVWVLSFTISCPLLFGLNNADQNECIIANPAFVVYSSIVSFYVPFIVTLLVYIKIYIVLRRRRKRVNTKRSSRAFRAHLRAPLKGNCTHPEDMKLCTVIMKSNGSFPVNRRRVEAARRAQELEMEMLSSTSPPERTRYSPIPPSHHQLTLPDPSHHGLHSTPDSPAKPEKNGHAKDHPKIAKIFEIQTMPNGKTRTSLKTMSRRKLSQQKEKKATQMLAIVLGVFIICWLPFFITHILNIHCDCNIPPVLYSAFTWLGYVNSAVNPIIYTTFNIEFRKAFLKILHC

Eta [8] = target: T1, Eta; experiment: cell-based; remark: listed apart in the source
JAK2 = JAK2 (Homo sapiens, UniProt O60674); experiment: biochemical
H2 = H2 (Homo sapiens, UniProt P25021); experiment: cell-based
H2, sequence (P25021 whole entry): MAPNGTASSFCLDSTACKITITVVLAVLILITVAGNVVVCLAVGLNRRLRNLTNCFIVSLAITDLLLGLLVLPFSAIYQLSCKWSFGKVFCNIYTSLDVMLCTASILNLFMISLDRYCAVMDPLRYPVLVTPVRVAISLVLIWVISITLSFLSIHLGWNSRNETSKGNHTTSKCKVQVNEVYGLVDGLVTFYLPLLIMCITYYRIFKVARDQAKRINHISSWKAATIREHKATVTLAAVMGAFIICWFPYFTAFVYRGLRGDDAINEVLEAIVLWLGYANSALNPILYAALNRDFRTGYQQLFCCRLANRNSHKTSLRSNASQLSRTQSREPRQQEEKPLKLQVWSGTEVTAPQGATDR

Alpha1a = Alpha1a (Homo sapiens, UniProt P35348); experiment: cell-based
Alpha1a, sequence (P35348 whole entry): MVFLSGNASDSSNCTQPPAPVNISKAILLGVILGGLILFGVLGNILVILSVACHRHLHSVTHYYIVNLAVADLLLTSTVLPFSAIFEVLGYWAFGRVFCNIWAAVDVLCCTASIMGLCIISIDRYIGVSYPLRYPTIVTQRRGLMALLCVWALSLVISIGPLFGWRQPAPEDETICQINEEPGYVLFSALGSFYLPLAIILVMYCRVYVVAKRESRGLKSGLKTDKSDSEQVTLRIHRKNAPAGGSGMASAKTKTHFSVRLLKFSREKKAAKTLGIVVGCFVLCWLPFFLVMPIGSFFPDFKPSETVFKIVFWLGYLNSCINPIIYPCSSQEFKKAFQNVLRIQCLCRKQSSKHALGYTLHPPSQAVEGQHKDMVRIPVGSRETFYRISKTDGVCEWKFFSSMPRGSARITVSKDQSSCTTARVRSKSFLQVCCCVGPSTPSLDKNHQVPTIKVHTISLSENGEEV

[9] = test system: A/Guangzhou/39715/2014 (H5N6); experiment: microbe, parasite or virus in culture; assay type: cell-based, avian influenza virus; conditions: unidentified influenza virus, H5N6, MDCK, read-out: IC50 (mean ± SD)
D2 [10] = target: T3, D2; experiment: cell-based; remark: listed apart in the source
M1 = M1 (Homo sapiens, UniProt P11229); experiment: cell-based
M1, sequence (P11229 whole entry): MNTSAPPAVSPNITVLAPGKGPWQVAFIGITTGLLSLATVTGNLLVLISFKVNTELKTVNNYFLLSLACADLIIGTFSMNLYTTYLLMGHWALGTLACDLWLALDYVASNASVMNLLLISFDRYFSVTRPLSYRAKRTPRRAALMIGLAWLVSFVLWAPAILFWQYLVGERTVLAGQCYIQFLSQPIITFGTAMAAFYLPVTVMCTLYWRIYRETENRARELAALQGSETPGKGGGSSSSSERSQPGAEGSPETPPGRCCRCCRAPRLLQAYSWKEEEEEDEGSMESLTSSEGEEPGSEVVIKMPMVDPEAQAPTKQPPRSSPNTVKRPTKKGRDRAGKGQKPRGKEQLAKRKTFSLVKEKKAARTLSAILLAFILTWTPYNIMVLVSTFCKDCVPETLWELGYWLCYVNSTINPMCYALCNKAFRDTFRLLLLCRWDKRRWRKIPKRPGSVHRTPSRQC

in vivo = conditions: female, BALB/c, mouse, po
ABL1 = ABL1 (Homo sapiens, UniProt P00519); experiment: biochemical
op-delta = op-delta (Homo sapiens, UniProt P41143); experiment: cell-based
op-delta, sequence (P41143 whole entry): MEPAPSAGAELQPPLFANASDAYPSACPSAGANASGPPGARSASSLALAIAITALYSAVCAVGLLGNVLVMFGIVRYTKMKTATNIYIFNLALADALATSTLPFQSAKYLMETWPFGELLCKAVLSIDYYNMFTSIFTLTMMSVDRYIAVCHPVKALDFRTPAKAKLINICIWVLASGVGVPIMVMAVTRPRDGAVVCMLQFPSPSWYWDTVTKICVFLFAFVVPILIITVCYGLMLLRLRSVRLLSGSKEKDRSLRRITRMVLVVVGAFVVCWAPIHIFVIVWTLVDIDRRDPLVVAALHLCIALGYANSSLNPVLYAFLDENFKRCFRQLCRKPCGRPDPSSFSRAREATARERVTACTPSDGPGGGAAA

CB1 = CB1 (Homo sapiens, UniProt P21554); experiment: cell-based
CB1, sequence (P21554 whole entry): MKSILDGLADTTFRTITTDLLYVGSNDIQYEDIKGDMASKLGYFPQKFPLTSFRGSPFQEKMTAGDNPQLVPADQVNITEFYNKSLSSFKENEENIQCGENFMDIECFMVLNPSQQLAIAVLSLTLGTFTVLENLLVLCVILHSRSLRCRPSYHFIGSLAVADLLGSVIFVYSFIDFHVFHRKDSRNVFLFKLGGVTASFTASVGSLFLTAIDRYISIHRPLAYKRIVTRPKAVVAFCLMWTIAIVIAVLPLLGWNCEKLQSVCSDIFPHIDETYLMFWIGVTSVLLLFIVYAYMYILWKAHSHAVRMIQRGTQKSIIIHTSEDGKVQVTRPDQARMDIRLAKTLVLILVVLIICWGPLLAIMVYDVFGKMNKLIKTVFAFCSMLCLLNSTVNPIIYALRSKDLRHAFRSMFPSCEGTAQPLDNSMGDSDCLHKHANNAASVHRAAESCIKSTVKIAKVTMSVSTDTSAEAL

in vitro [11] = conditions: human
CK1 alpha = CK1 alpha (Homo sapiens, UniProt P48729); experiment: biochemical
op-kappa [12] = target: T2, op-kappa; experiment: cell-based; remark: listed apart in the source
AD2 = assay type: cell-based, human
[13] = test system: H1N1 and H3N2 influenza A virus strains; experiment: in vitro; conditions: dog
[14] = 10,000 nM, read-out: Inhibition at Maximum Concentration (%)

T1 sequence (P25101 21-427): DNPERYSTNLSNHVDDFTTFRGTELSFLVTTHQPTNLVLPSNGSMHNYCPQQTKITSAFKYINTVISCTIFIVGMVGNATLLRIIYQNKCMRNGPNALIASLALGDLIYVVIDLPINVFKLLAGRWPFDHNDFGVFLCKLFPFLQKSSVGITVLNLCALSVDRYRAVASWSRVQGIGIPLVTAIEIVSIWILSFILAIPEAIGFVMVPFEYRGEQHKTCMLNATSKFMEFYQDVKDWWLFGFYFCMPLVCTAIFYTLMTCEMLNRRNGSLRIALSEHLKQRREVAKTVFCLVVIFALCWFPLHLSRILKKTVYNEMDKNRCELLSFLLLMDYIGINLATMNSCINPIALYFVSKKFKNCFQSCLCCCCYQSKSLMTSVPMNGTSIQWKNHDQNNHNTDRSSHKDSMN

O=C(O)[C@H]1C2CCC(CC2)[C@@H]1Nc1nc(-c2n[nH]c3ncc(F)cc23)nc(C2CC2)c1F [ZSP1273]
IC50 (PDK1): > 10 µM | EC50 ([1]; read-out: EC50 values range): 0.01 to 0.063 nM | EC50 ([1]; read-out: average EC50 value range): 0.012 to 0.063 nM | IC50 (Eta [2]): > 10 µM | inhibition at 10 µM (Eta [2]; [14]): 9.07% | IC50 (MAP4K4): > 10 µM | EC50 (op-kappa [3]): > 12 µM | Activity at Maximum Concentration (%) (op-kappa [3]; 12,000 nM): −18.96% | EC50 (CB2): > 12 µM | Activity at Maximum Concentration (%) (CB2; 12,000 nM): −17.1% | IC50 (LCK): > 10 µM | EC50 (22 GPCR targets): > 12 µM | IC50 (M3): > 10 µM | inhibition at 10 µM (M3; [14]): -4.78% | EC50 (5HT1A): > 12 µM | Activity at Maximum Concentration (%) (5HT1A; 12,000 nM): 16.98% | EC50 (H1): > 12 µM | Activity at Maximum Concentration (%) (H1; 12,000 nM): 0.73% | EC50 (HRV 1B): 7.88 µM | IC50 (MAPKAPK2): > 10 µM | EC50 [4]: 0.042 ± 0.01 nM | EC50 (HCV replicon 1b): > 10 µM | EC50 [5]: 0.019 ± 0.01 nM | IC50 (PKA): > 10 µM | IC50 (V1a): > 10 µM | inhibition at 10 µM (V1a; [14]): 7.24% | IC50 (Alpha2a): > 10 µM | inhibition at 10 µM (Alpha2a; [14]): -9.3% | IC50 (M2): > 10 µM | inhibition at 10 µM (M2; [14]): -55.7% | CC50 (in vitro [6]): > 10 µM | EC50 (D2 [7]): > 12 µM | Activity at Maximum Concentration (%) (D2 [7]; 12,000 nM): −0.06% | EC50 (Eta [8]): > 12 µM | Activity at Maximum Concentration (%) (Eta [8]; 12,000 nM): −1.16% | IC50 (JAK2): > 10 µM | IC50 (H2): > 10 µM | inhibition at 10 µM (H2; [14]): 42.4% | IC50 (Alpha1a): > 10 µM | inhibition at 10 µM (Alpha1a; [14]): -56.5% | IC50 [9]: 0.000245 ± 3e-05 µM | IC50 (D2 [10]): > 10 µM | inhibition at 10 µM (D2 [10]; [14]): 13.6% | IC50 (M1): > 10 µM | inhibition at 10 µM (M1; [14]): -0.95% | AUC(0-t) (in vivo; 3 mg/kg): 1040 ng·h/mL | Cmax (in vivo; 3 mg/kg): 439 ng/mL | AUC(0-t) (in vivo; 10 mg/kg): 6190 ng·h/mL | Cmax (in vivo; 10 mg/kg): 3010 ng/mL | AUC(0-t) (in vivo; 30 mg/kg): 56000 ng·h/mL | Cmax (in vivo; 30 mg/kg): 23700 ng/mL | IC50 (ABL1): > 10 µM | EC50 (op-delta): > 12 µM | Activity at Maximum Concentration (%) (op-delta; 12,000 nM): −10.64% | EC50 (CB1): > 12 µM | Activity at Maximum Concentration (%) (CB1; 12,000 nM): −12.1% | CC50 (in vitro [11]): > 10 µM | IC50 (CK1 alpha): > 10 µM | IC50 (op-kappa [12]): > 10 µM | inhibition at 10 µM (op-kappa [12]; [14]): -27.8% | EC50 (AD2): > 12 µM | Activity at Maximum Concentration (%) (AD2; 12,000 nM): 3.38% | selectivity ratio [13]: > 25000
